From patent US5262522A, “Receptor for oncostatin M and leukemia inhibitory factor” (Immunex Corporation, priority 1991, dated 1993)

Tested on: oncostatin M
Experiment: Oncostatin M binding assay (phthalate oil separation, Scatchard) on transfected COS-7 cells
Details: cells preincubated with non-radiolabeled LIF before 125I-oncostatin M (curve B)
Description: Oncostatin M may be purified from cells in which the protein is naturally found, or from cells transformed with an expression vector encoding oncostatin M. One source of oncostatin M is phorbol ester-treated U937 cells, as described by Zarling et al., PNAS U.S.A. 83:9739 (1986). Purification of recombinant oncostatin M is described by Linsley et al., J. Biol. Chem. 264:4282-4289 (1989), which is hereby incorporated by reference in its entirety.
Oncostatin M may be radiolabeled using any suitable conventional procedure, such as the radioiodination procedure employed to radiolabel LIF in Example 1. The radio-iodination of oncostatin M has also been described by Linsley et al., supra.
The resulting radiolabeled oncostatin M may be substituted for radiolabeled LIF (using the same concentrations and other reaction parameters) in the assay procedures described in Example 1 in order to detect proteins and cells that bind oncostatin M. An assay for binding of ^125 I-oncostatin M to cells is also described in Linsley et al., supra.
COS-7 cells transfected with vector(s) encoding gp130 or LIF-R were assayed for the ability to bind oncostatin M. In separate transfections, COS-7 cells were transfected with the following combinations of vectors. […]

gp130 and LIF-R: receptor of gp130 and LIF-R co-expressed on COS-7 cells co-transfected with vectors B10G and pHLIFR-65
binding of oncostatin M after preincubation with LIF: did not bind oncostatin M in any measurable amount above that bound by the non-transfected COS-7 cells
